Laboratory results from patent US9302999B2, “Substituted triazoles as herbicides” (E. I. DU PONT DE NEMOURS AND COMPANY, priority 2012, dated 2016).

Legend:
Format in all cases: in vivo
[1] = system: crabgrass, large (large crabgrass, Digitaria sanguinalis); assay: Test A pre-/postemergence: crabgrass, large; details: for Crabgrass, Large plant response rating: Postemergence; for Plant response rating, Crabgrass, Large: Preemergence
Description: (§1) Seeds of barnyardgrass (Echinochloa crus-galli), crabgrass, large (large crabgrass, Digitaria sanguinalis), foxtail, giant (giant foxtail, Setaria faberii), morningglory (Ipomoea spp.), pigweed (Amaranthus retroflexus), velvetleaf (Abutilon theophrasti), wheat (Triticum aestivum), and corn (Zea mays) were planted into a blend of loam soil and sand and treated preemergence with a directed soil spray using test chemicals formulated in a non-phytotoxic solvent mixture which included a surfactant. At the same time these species were also treated with postemergence applications of test chemicals formulated in the same manner.
(§2) Plants ranged in height from two to ten cm and were in the one- to two-leaf stage for the postemergence treatment. Treated plants and untreated controls were maintained in a greenhouse for approximately ten days, after which time all treated plants were compared to untreated controls and visually evaluated for injury. Plant response ratings, summarized in Table A, are based on a 0 to 100 scale where 0 is no effect and 100 is complete control. A dash (-) response means no test result.

[2] = system: foxtail, giant (giant foxtail, Setaria faberii); assay: Test A pre-/postemergence: foxtail, giant; details: for Foxtail, Giant plant response rating: Postemergence; for Plant response rating, Foxtail, Giant: Preemergence
Description: as §1, §2

[3] = system: barnyardgrass (Echinochloa crus-galli); assay: Test A pre-/postemergence: barnyardgrass; details: for Barnyardgrass plant response rating: Postemergence; for Plant response rating, Barnyardgrass: Preemergence
Description: as §1, §2

[4] = system: pigweed (Amaranthus retroflexus); assay: Test A pre-/postemergence: pigweed; details: for Pigweed plant response rating: Postemergence; for Plant response rating, Pigweed: Preemergence
Description: as §1, §2

[5] = system: morningglory (Ipomoea spp.); assay: Test A pre-/postemergence: morningglory; details: for Morningglory plant response rating: Postemergence; for Plant response rating, Morningglory: Preemergence
Description: as §1, §2

corn (Zea mays) = assay: Test A pre-/postemergence: corn; details: for Corn plant response rating: Postemergence; for Plant response rating, Corn: Preemergence
Description: as §1, §2

[6] = system: velvetleaf (Abutilon theophrasti); assay: Test A pre-/postemergence: velvetleaf; details: for Velvetleaf plant response rating: Postemergence; for Plant response rating, Velvetleaf: Preemergence
Description: as §1, §2

[7] = system: wheat (Triticum aestivum); assay: Test A pre-/postemergence: wheat; details: for Wheat plant response rating: Postemergence; for Plant response rating, Wheat: Preemergence
Description: as §1, §2

[8] = 125 g ai/ha, 0 to 100 scale, 0 is no effect, 100 is complete control
[9] = 500 g ai/ha, visual rating on 0 to 100 scale (0 no effect, 100 complete control), approximately ten days
[10] = 125 g ai/ha, 0 to 100 scale where 0 is no effect and 100 is complete control
[11] = 500 g ai/ha, 0 to 100 scale (0 no effect, 100 complete control)
[12] = 125 g ai/ha, 0 to 100 scale (0 no effect, 100 complete control)
[13] = 500 g ai/ha, 0 to 100 scale, 0 is no effect, 100 is complete control

Row | SMILES | Crabgrass, Large plant response rating [1, 8] | Crabgrass, Large plant response rating [1, 9] | Foxtail, Giant plant response rating [2, 8] | Foxtail, Giant plant response rating [2, 9] | Plant response rating, Foxtail, Giant [2, 10] | Barnyardgrass plant response rating [3, 8] | Barnyardgrass plant response rating [3, 9] | Pigweed plant response rating [4, 8] | Pigweed plant response rating [4, 9] | Plant response rating, Pigweed [4, 10] | Morningglory plant response rating [5, 8] | Morningglory plant response rating [5, 9] | Plant response rating, Morningglory [5, 10] | Corn plant response rating (corn (Zea mays); [8]) | Corn plant response rating (corn (Zea mays); [9]) | Velvetleaf plant response rating [6, 8] | Velvetleaf plant response rating [6, 9] | Plant response rating, Velvetleaf [6, 10] | Wheat plant response rating [7, 8] | Wheat plant response rating [7, 9] | further results
1 | Cc1nn(-c2ccc(F)cc2)nc1Oc1cccc(C(F)(F)F)n1 [Compound 127] | 10 | 30 | 10 | 20 | 10 | 10 | 20 | 40 | 60 | 0 | 20 | 30 | 0 | 10 | 20 | 20 | 20 | 0 | 0 | 10 | Plant response rating, Crabgrass, Large [1, 10]: 10; Plant response rating, Crabgrass, Large [1, 11]: 40; Plant response rating, Foxtail, Giant [2, 11]: 30; Plant response rating, Barnyardgrass [3, 10]: 0; Plant response rating, Barnyardgrass [3, 11]: 10; Plant response rating, Pigweed [4, 11]: 20; Plant response rating, Morningglory [5, 11]: 0; Plant response rating, Corn (corn (Zea mays); [10]): 0; Plant response rating, Corn (corn (Zea mays); [11]): 0; Plant response rating, Velvetleaf [6, 11]: 0; Plant response rating, Wheat [7, 10]: 0; Plant response rating, Wheat [7, 11]: 0
2 | Cc1nn(-c2ccc(C(F)(F)F)cc2)nc1Nc1cccc(C(F)(F)F)c1 [Compound 69] | 10 | 20 | 10 | 10 | – | 10 | 10 | 30 | 90 | – | 20 | 30 | – | 10 | 20 | 10 | 20 | – | 0 | 10 | Plant response rating, Crabgrass, Large [1, 12]: 0; Plant response rating, Crabgrass, Large [1, 13]: 10; Plant response rating, Foxtail, Giant [2, 12]: 0; Plant response rating, Foxtail, Giant [2, 13]: 0; Plant response rating, Barnyardgrass [3, 12]: 0; Plant response rating, Barnyardgrass [3, 13]: 0; Plant response rating, Pigweed [4, 12]: 0; Plant response rating, Pigweed [4, 13]: 10; Plant response rating, Morningglory [5, 12]: 0; Plant response rating, Morningglory [5, 13]: 0; Plant response rating, Corn (corn (Zea mays); [12]): 0; Plant response rating, Corn (corn (Zea mays); [13]): 0; Plant response rating, Velvetleaf [6, 12]: 0; Plant response rating, Velvetleaf [6, 13]: 0; Plant response rating, Wheat [7, 12]: 0; Plant response rating, Wheat [7, 13]: 0
3 | Cc1nn(-c2ccc(F)cc2)nc1Oc1nccc(C(F)(F)F)n1 [Compound 102] | 0 | 10 | 0 | 0 | 0 | 0 | 0 | 10 | 70 | 0 | 0 | 0 | 0 | 0 | 0 | 0 | 0 | 0 | 0 | 0 | Plant response rating, Crabgrass, Large [1, 12]: 0; Plant response rating, Crabgrass, Large [1, 13]: 0; Plant response rating, Foxtail, Giant [2, 13]: 0; Plant response rating, Barnyardgrass [3, 12]: 0; Plant response rating, Barnyardgrass [3, 13]: 0; Plant response rating, Pigweed [4, 13]: 0; Plant response rating, Morningglory [5, 13]: 0; Plant response rating, Corn (corn (Zea mays); [12]): 0; Plant response rating, Corn (corn (Zea mays); [13]): 0; Plant response rating, Velvetleaf [6, 13]: 0; Plant response rating, Wheat [7, 10]: 0; Plant response rating, Wheat [7, 13]: 0
4 | Cc1nn(-c2ccc(C(F)(F)F)cc2)nc1Oc1cc(C(F)(F)F)nn1C [Compound 104] | 50 | 70 | 20 | 50 | 60 | 20 | 30 | 70 | 100 | 30 | 60 | 90 | 0 | 10 | 20 | 30 | 60 | 0 | 0 | 0 | Plant response rating, Crabgrass, Large [1, 12]: 60; Plant response rating, Crabgrass, Large [1, 13]: 90; Plant response rating, Foxtail, Giant [2, 13]: 90; Plant response rating, Barnyardgrass [3, 12]: 10; Plant response rating, Barnyardgrass [3, 13]: 20; Plant response rating, Pigweed [4, 13]: 90; Plant response rating, Morningglory [5, 13]: 0; Plant response rating, Corn (corn (Zea mays); [12]): 0; Plant response rating, Corn (corn (Zea mays); [13]): 0; Plant response rating, Velvetleaf [6, 13]: 30; Plant response rating, Wheat [7, 10]: 0; Plant response rating, Wheat [7, 13]: 0
